Data set [1] in a line: Pharmacokinetic test in mice. In kind it is in vivo, ICR mice. On the procedure: 8.1 Experimental animals: male ICR mice, 20 to 25 g, 18 mice/compound, purchased from Chengdu Ddossy Experimental Animals Co., Ltd.
8.2 Experimental design: on the day of the experiment, 36 ICR mice were randomly grouped according to their body weights. The animals were fasted with water available for 12 to 14 h one day before the administration, and were fed 4 h after the administration.
Before and after the administration, 0.06 mL of blood was taken from the orbit of the animals under isoflurane anesthesia and placed in an EDTAK2 centrifuge tube. The blood was centrifuged at 5000 rpm and 4° C. for 10 min to collect plasma. The blood collection time points for the intravenous group and intragastric administration group were: 0 min, 5 min, 15 min, 30 min, 1 h, 2 h, 4 h, 6 h, 8 h, and 24 h. Before analysis and detection, all samples were stored at −80° C. The samples were analyzed quantitatively by LC-MS/MS.

The next data set has as its target PARP1 (Homo sapiens (Human), UniProt P09874). Briefly: PARP1 protein expression level in MDA-MB-436 cells. The format is cell-based. Conditions: 100 nM, 24 hours. How it is done:
(§1) MDA-MB-436 cells were placed in a complete DMEM medium (supplemented with 15% FBS; 10 μg/mL Insulin; 16 μg/mL Glutathione and 1% penicillin-streptomycin solution), and cultured at 37° C. under CO2-free conditions. The cells in the logarithmic growth phase were collected, the cell density was adjusted to 2×10^5 cells/well with the culture medium, and the cells were added to a 6-well cell culture plate at a volume of 1 mL/well. The compound to be tested was prepared to 2-fold the final concentration, 1 mL of the compounds at different concentrations were added to administration wells, a medium containing 0.2% DMSO was added to control wells, and the plate was incubated for 24 hours at 37° C. The cells were collected into a 1.5 mL centrifuge tube, 25 μL of RIPA lysis buffer (containing 1× protease inhibitor cocktail) was added, and the cells were lysed on ice for 15 minutes and centrifuged at 12000 rpm/min at 4° C. for 10 minutes. The supernatant was collected and the protein content was determined using the BCA method. The protein sample to be tested was diluted to 0.8 mg/mL, PARP1 was detected using a fully automated protein expression quantitative analyzer (ProteinSimple), and the internal reference protein was 3-actin (both antibodies were from CST). The software (Compass for SW) of the fully automated protein expression quantitative analyzer was used to process the raw data and calculate the peak area and the PARP1 expression rate relative to the control group.
as §1, with “L-15” for “DMEM”, “mL/well and cultured overnight. On day 2, the” for “mL/well. The”, “group. DC50 values were calculated using a four-parameter non-linear fitting model in Graphpad 8.3.0 software.” for “group.”

Data set [2] in a line: Pharmacokinetic test in rats. In kind it is in vivo, SD rats. On the procedure:
7.1 Experimental animals: male SD rats, about 220 g, 6-8 weeks old, 6 rats/compound, purchased from Chengdu Ddossy Experimental Animals Co., Ltd.
7.2 Experimental design: on the day of the experiment, 12 SD rats were randomly grouped according to their body weights. The animals were fasted with water available for 12 to 14 h one day before the administration, and were fed 4 h after the administration.
Before and after the administration, 0.15 mL of blood was taken from the orbit of the animals under isoflurane anesthesia and placed in an EDTAK2 centrifuge tube. The blood was centrifuged at 5000 rpm and 4° C. for 10 min to collect plasma. The blood collection time points for the intravenous administration group and intragastric administration group were: 0, 5 min, 15 min, 30 min, 1 h, 2 h, 4 h, 6 h, 8 h, and 24 h. Before analysis and detection, all samples were stored at −80° C. The samples were analyzed quantitatively by LC-MS/MS.

Data set [3] concerns breast tumor cells MDA-MB-436. Briefly: MDA-MB-436 cell activity test (CellTiter-Glo, 7 days). In kind it is cell-based, human. Conditions: Homo sapiens; for IC50: MDA-MB-436, 168 h, MDA-MB-436 cells, 7 days incubation, read-out: IC50 (nM), MDA-MB-436 cell inhibitory activity; for inhibition at 10 µM: MDA-MB-436, MDA-MB-436 cells, read-out: Max inh. % 10 μM. How it is done: Breast tumor cells MDA-MB-436 were purchased from ATCC, the culture medium was Leibovitz's L-15+10% FBS, and the cells were cultured in a CO2-free incubator at 37° C. On day 1, the cells in the exponential growth phase were collected, and the cell suspension was adjusted to 4000 cells/135 μL with the culture medium. 135 μL of the cell suspension was added to each well of a 96-well cell culture plate and incubated overnight. On day 2, compounds at different concentrations were added, and the plate was placed in the incubator and incubated for 7 days. After the culture was completed, according to operation instructions for a CellTiter-Glo kit (Promega, G7573), 75 μL of CTG solution, which was already pre-melted and equilibrated to room temperature, was added to each well, and the mixture was uniformly mixed for 2 minutes using a microplate shaker. The plate was placed at room temperature for 10 minutes, and then […] signal values were determined using an Envision2104 plate reader (PerkinElmer). The inhibition rate was calculated using formula (1), where RLUcompound was the readout of the drug treated group, RLUcontrol was the average value of the solvent control group, and RLUblank was the average value of the cell-free well. The IC50 value was calculated using GraphPad Prism software.

The mark [4] stands for this setting: male, ICR, mouse, iv, i.v. 2.5 mg/kg, plasma.
Where [5] appears, read: male, SD, rat, iv, i.v. 2.5 mg/kg, plasma.

Eight molecules from patent US20250222116A1, “PARP-1 DEGRADATION AGENT AND USE THEREOF” (XIZANG HAISCO PHARMACEUTICAL CO., LTD., priority 2021, published 2025) can be followed below.

Chain of PARP1 (P09874 whole entry): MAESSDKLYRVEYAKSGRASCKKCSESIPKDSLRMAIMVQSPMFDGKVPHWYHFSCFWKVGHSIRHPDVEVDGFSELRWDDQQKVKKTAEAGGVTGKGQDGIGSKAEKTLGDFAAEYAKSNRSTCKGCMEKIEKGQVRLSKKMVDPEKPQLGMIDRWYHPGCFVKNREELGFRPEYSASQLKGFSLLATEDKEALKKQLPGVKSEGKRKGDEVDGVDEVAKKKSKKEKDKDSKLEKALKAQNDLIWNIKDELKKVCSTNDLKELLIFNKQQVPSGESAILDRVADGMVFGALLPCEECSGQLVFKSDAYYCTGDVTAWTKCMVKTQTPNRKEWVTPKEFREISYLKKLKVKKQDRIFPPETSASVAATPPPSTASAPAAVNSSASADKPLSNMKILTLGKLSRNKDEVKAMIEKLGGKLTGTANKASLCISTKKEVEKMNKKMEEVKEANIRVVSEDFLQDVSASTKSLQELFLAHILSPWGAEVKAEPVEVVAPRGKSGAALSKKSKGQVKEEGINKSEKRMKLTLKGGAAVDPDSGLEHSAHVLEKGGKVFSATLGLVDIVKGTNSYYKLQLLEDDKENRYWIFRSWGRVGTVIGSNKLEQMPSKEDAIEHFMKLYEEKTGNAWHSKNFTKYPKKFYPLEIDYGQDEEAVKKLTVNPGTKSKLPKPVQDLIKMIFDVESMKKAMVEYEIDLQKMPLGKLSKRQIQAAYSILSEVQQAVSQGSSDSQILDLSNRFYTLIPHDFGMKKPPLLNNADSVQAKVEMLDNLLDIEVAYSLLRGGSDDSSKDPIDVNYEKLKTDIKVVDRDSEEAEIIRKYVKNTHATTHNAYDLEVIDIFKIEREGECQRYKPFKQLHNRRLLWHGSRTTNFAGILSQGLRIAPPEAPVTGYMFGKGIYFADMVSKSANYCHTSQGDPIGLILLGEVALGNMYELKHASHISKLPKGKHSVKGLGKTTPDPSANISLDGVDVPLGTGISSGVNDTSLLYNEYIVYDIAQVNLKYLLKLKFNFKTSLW

Regarding `CCc1cc2ncc(CN3CC=C(c4ccc(C(=O)Nc5cnn(C6CCN(c7ccc8c(c7)C(=O)N(C7CCC(=O)NC7=O)C8=O)CC6)c5)nc4)CC3)cc2[nH]c1=O` (centres unmarked) [Compound 58, N-(1-(1-(2-(2,6-dioxopiperidin-3-yl)-1,3-dioxoisoindolin-5-yl)piperidin-4-yl)-1H-pyrazol-4-yl)-1′-((7-ethyl-6-oxo-5,6-dihydro-1,5-naphthyridin-3-yl)methyl)-1′,2′,3′,6′-tetrahydro-[3,4′-bipyridine]-6-carboxamide], the pharmacokinetic characteristics result in data set [1] and in data set [2] was “good pharmacokinetic characteristics” each time. Further, the results for the F in data set [1] (i.g. 10 mg/kg) and in data set [2] (i.g. 10 mg/kg) were 15.6% and 6.2%, respectively. Moreover, the AUC(0-t) was 224000 ng·h/mL in data set [1] (setting [4]); 140000 ng·h/mL in data set [1] (male, ICR, mouse, po, i.g. 10 mg/kg, plasma); 51400 ng·h/mL in data set [2] (setting [5]); 12800 ng·h/mL in data set [2] (male, SD, rat, po, i.g. 10 mg/kg, plasma). Further, the clearance was determined as 0.0968 mL/min/kg in data set [1] (setting [4]) and 0.713 mL/min/kg in data set [2] (setting [5]). Moreover, the Vd came out at 0.189 L/kg in data set [1] (male, ICR, mouse, iv, i.v. 2.5 mg/kg, plasma, read-out: Vdss) and 0.366 L/kg in data set [2] (male, SD, rat, iv, i.v. 2.5 mg/kg, plasma, read-out: Vdss). For the same molecule, the “PARP1 degradation rate @ 100 nM” value at PARP1 is 79.6%. Besides, the IC50 in data set [3] was 6 nM. The inhibition at 10 µM in data set [3] is 87.2%.
Consider `CCc1cc2ncc(CN3CCN(c4ccc(C(=O)NC5CCC(Oc6ccc7c(c6)C(=O)N(C6CCC(=O)NC6=O)C7=O)CC5)nc4)CC3)cc2[nH]c1=O` (centres unmarked) [Compound 66, N-((1r,4r)-4-((2-(2,6-dioxopiperidin-3-yl)-1,3-dioxoisoindolin-5-yl)oxy)cyclohexyl)-5-(4-((7-ethyl-6-oxo-5,6-dihydro-1,5-naphthyridin-3-yl)methyl)piperazin-1-yl)picolinamide], for which, on PARP1, the “PARP1 degradation rate @ 100 nM” value is 76.4%. In addition, in data set [3], the IC50 is 97.8 nM and the inhibition at 10 µM worked out at 93.2%.
For the molecule `CCc1cc2ncc(CN3CCN(c4ccc(C(=O)NC5CCN(C6CN(c7cc8c(cc7F)C(=O)N(C7CCC(=O)NC7=O)C8=O)C6)CC5)nc4)CC3)cc2[nH]c1=O` (centres unmarked) [Compound 26, N-(1-(1-(2-(2,6-dioxopiperidin-3-yl)-6-fluoro-1,3-dioxoisoindolin-5-yl)azetidin-3-yl)piperidin-4-yl)-5-(4-((7-ethyl-6-oxo-5,6-dihydro-1,5-naphthyridin-3-yl)methyl)piperazin-1-yl)picolinamide], the “PARP1 degradation rate @ 100 nM” value at PARP1 worked out at 83.5%. In addition, in data set [3], the IC50 amounted to 53 nM and the inhibition at 10 µM was 81.7%.
With `CCc1cc2ncc(CN3CCN(c4ccc(C(=O)Nc5cnn(C6CCN(c7ccc8c(c7)C(=O)N(C7CCC(=O)NC7=O)C8=O)CC6)c5)nc4)CC3)cc2[nH]c1=O` (centres unmarked) [Compound 57, N-(1-(1-(2-(2,6-dioxopiperidin-3-yl)-1,3-dioxoisoindolin-5-yl)piperidin-4-yl)-1H-pyrazol-4-yl)-5-(4-((7-ethyl-6-oxo-5,6-dihydro-1,5-naphthyridin-3-yl)methyl)piperazin-1-yl)picolinamide], at PARP1, the “PARP1 degradation rate @ 100 nM” value amounted to 80.6%. Moreover, in data set [3], the IC50 was found to be 15.8 nM and the inhibition at 10 µM amounted to 84%.
With `CCc1cc2ncc(CN3CCN(c4ccc(C(=O)NC5CCN(c6ccc7c(c6)CN(C6CCC(=O)NC6=O)C7=O)CC5)nc4)CC3)cc2[nH]c1=O` (centres unmarked) [Compound 31, N-(1-(2-(2,6-dioxopiperidin-3-yl)-1-oxoisoindolin-5-yl)piperidin-4-yl)-5-(4-((7-ethyl-6-oxo-5,6-dihydro-1,5-naphthyridin-3-yl)methyl)piperazin-1-yl)picolinamide], the “PARP1 degradation rate @ 100 nM” value on PARP1 stood at 92.1%.
For `CCc1cc2ncc(CN3CC=C(c4ccc(C(=O)N[C@H]5CCN(c6ccc7c(c6)C(=O)N(C6CCC(=O)NC6=O)C7=O)C5)nc4)CC3)cc2[nH]c1=O` (stereo partly drawn) [Compound 53, N-((3S)-1-(2-(2,6-dioxopiperidin-3-yl)-1,3-dioxoisoindolin-5-yl)pyrrolidin-3-yl)-1′-((7-ethyl-6-oxo-5,6-dihydro-1,5-naphthyridin-3-yl)methyl)-1′,2′,3′,6′-tetrahydro-[3,4′-bipyridine]-6-carboxamide], in data set [3], the IC50 amounted to 58 nM and the inhibition at 10 µM amounted to 98%.
As for `CCc1cc2ncc(CN3CC=C(c4ccc(C(=O)NC5CCN(c6cccc(NC7CCC(=O)NC7=O)c6)CC5)nc4)CC3)cc2[nH]c1=O` (centres unmarked) [Compound 65, N-(1-(3-((2,6-dioxopiperidin-3-yl)amino)phenyl)piperidin-4-yl)-1′-((7-ethyl-6-oxo-5,6-dihydro-1,5-naphthyridin-3-yl)methyl)-1′,2′,3′,6′-tetrahydro-[3,4′-bipyridine]-6-carboxamide], in data set [3], the IC50 came out at 39.5 nM and the inhibition at 10 µM is 76.8%.
Consider `CCc1cc2ncc(CN3CCN(c4ccc(C(=O)NC5CC6(C5)CN(c5ccc7c(c5)C(=O)N(C5CCC(=O)NC5=O)C7=O)C6)nc4)CC3)cc2[nH]c1=O` (centres unmarked) [Compound 24, N-(2-(2-(2,6-dioxopiperidin-3-yl)-1,3-dioxoisoindolin-5-yl)-2-azaspiro[3.3]heptan-6-yl)-5-(4-((7-ethyl-6-oxo-5,6-dihydro-1,5-naphthyridin-3-yl)methyl)piperazin-1-yl)picolinamide], for which the “PARP1 degradation rate @ 100 nM” value on PARP1 was determined as 76.2%. Besides, in data set [3], the IC50 was 38 nM and the inhibition at 10 µM stood at 98.9%.
